Results on three compounds are retold here after patent US20110124617A1, “Combination Therapy for BreastCancer Comprising an Antiestrogenic Agent” (priority 2008, published 2011).

Assay [1] has as its system rat uterus. Conditions: cited from earlier work; for estrogenic stimulation on the rat uterus: compound alone.
The test system of assay [2] is hot flashes. The experiment in a line: alleviation of hot flashes in a postmenopausal breast cancer patient treated with tamoxifen citrate. Format: in vivo, human. Conditions: postmenopausal patient on tamoxifen citrate (20 mg tamoxifen free base). On the procedure:
A postmenopausal patient is being treated in the adjuvant setting for breast cancer with the SERM tamoxifen citrate (dosage of 20 mg tamoxifen free base). They are experiencing hot flashes as a result of their treatment.

In the case of `CC/C(=C(\c1ccccc1)c1ccc(OCCN(C)C)cc1)c1ccccc1` [tamoxifen, reference compound], in assay [1], the “estrogenic stimulation on the rat uterus” value was “did stimulate the uterus”.
`CCNCCc1ccc(CN(CC)c2cc(OC)ccc2[C@@H]2CCc3cc(O)ccc3C2)cc1` [compound of formula I]: the entries for the “alleviation of hot flashes” value in assay [2] (20 mg once daily) and in assay [2] (dosage adjusted to 50 mg) were “partial alleviation of their symptoms” and “almost complete alleviation of their hot flushes”, respectively. In assay [1], the “estrogenic stimulation on the rat uterus” value is reported as “no estrogenic stimulation”. Also, the “antagonism of the estrogenic effect of estradiol on the uterus” value in assay [1] (with estradiol) was “could antagonize the estrogenic effect of estradiol on the uterus and bring it back to control levels”.
Regarding `O=C(c1ccc(OCCN2CCCCC2)cc1)c1c(-c2ccc(O)cc2)sc2cc(O)ccc12` [raloxifene, reference compound], in assay [1], the “estrogenic stimulation on the rat uterus” value is “did stimulate the uterus”.
